Experimental data as given in article PMC6556873, “Rapid Covalent-Probe Discovery by Electrophile-Fragment Screening” (Journal of the American Chemical Society, 2019).
Read-outs that look alike come from different tables or passages of the source.

Legend:
BSA = target: T1, BSA (Bos taurus, UniProt P02769); parameters: Intact protein LC/MS covalent labelling, fragments in pools of five, 200 uM each, 4 °C; details: 24 h, 4 °C, pool of five; 200 µM; covalent
T1 construct: gene ALB

NNMT (hNNMT) = target: T2, NNMT (hNNMT) (Homo sapiens, UniProt P40261); parameters: Intact protein LC/MS covalent labelling, fragments in pools of five, 200 uM each, 4 °C; details: 24 h, 4 °C, pool of five; 200 µM; covalent
T2 construct: wild type, N-terminal His6 tag kept (no cleavage described), E. coli, construct 31248 Da
T2 sequence (P40261 1-264): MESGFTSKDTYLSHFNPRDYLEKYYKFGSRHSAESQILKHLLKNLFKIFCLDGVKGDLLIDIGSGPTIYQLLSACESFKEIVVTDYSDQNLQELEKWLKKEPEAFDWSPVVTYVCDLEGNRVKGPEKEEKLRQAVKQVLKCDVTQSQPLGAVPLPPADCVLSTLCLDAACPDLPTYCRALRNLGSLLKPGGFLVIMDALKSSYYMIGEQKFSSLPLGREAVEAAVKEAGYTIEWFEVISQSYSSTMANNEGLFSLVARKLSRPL

NUDT7 = target: T3, NUDT7 (Homo sapiens, UniProt P0C024); parameters: Intact protein LC/MS covalent labelling, fragments in pools of five, 200 uM each, 4 °C; details: 24 h, 4 °C, pool of five; 200 µM; covalent
T3 construct: residues 14-235, E. coli, pNIC28-Bsa4, N-terminal His6 tag removed by TEV, construct 26672 Da

OTUB2 (OTUB2A) = target: T4, OTUB2 (OTUB2A) (Homo sapiens, UniProt Q96DC9); parameters: Intact protein LC/MS covalent labelling, fragments in pools of five, 200 uM each, 4 °C; details: 24 h, 4 °C, pool of five; 200 µM; covalent
T4 construct: full length residues 1-234, E. coli BL21(DE3)-R3, His tag removed by TEV, construct 27312 Da
T4 sequence (Q96DC9 1-234): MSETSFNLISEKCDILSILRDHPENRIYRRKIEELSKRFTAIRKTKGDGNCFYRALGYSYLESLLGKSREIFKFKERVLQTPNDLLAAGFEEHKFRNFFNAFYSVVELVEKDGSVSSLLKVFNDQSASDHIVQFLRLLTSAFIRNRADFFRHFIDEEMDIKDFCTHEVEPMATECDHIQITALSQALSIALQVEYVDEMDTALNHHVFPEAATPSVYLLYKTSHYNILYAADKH

PCAF = target: T5, PCAF (Homo sapiens, UniProt Q92831); parameters: Intact protein LC/MS covalent labelling, fragments in pools of five, 200 uM each, 4 °C; details: 24 h, 4 °C, pool of five; 200 µM; covalent
T5 construct: gene KAT2B

in vitro [1] = assay: in vitro; parameters: species or system CCD841, HEK293; details: human, hb2 cells, read-out: HB-2 Cells Viability (%)
in vitro [2] = assay: in vitro; parameters: species or system HB2, HEK293; details: human, ccd841 cells
in vitro [3] = assay: in vitro; parameters: species or system HB2, CCD841; details: human, hek293 cells

T3 sequence (P0C024 14-235): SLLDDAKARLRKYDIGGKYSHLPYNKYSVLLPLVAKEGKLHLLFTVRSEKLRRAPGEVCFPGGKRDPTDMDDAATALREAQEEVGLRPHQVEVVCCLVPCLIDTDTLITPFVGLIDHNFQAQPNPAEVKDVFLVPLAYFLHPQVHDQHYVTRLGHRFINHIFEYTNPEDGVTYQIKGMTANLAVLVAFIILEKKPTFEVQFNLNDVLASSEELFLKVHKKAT
T1 sequence (P02769 whole entry, the tested form may be a part): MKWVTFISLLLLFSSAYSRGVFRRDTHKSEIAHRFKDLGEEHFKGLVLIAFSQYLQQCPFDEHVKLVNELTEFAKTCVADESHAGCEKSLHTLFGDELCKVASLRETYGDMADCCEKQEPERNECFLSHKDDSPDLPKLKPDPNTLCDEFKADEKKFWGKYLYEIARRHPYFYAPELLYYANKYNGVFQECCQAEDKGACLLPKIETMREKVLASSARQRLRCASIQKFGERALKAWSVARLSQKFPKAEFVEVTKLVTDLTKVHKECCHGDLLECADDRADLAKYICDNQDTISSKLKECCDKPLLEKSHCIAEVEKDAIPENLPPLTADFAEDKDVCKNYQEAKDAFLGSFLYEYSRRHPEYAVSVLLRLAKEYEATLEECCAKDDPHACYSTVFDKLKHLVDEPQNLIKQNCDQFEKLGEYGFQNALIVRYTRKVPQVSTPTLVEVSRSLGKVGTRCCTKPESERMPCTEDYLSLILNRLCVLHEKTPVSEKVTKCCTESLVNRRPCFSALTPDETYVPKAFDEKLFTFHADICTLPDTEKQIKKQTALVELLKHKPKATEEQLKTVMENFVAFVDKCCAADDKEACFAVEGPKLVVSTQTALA
T5 sequence (Q92831 whole entry, the tested form may be a part): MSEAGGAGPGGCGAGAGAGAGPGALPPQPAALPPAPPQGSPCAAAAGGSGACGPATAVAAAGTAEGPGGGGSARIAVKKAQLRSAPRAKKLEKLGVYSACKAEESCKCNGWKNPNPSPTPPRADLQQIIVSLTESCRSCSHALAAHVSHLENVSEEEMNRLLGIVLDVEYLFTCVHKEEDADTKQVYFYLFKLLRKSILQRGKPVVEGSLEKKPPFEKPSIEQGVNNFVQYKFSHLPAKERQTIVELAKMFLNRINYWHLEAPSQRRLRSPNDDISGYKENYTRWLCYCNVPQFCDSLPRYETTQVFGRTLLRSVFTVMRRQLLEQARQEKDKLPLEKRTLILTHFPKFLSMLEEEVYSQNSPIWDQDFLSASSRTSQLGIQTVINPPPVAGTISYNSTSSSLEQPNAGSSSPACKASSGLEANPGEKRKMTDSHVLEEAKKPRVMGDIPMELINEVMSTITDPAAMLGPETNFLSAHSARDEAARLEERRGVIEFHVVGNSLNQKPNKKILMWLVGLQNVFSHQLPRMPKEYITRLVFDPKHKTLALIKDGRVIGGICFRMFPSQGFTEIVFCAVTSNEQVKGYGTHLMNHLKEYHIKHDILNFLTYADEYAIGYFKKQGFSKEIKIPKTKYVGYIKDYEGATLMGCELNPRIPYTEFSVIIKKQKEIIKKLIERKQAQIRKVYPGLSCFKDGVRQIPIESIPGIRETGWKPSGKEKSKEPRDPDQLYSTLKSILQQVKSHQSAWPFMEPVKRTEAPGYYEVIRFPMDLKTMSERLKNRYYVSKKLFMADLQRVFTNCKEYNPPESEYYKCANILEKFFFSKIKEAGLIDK

| SMILES | BSA (BSA) | NNMT (NNMT (hNNMT)) | NUDT7 (NUDT7) | OTUB2 (OTUB2 (OTUB2A)) | PCAF (PCAF) | viability at 48 h, 10 µM (in vitro [1]) | viability at 48 h, 10 µM (in vitro [2]) | viability at 48 h, 10 µM (in vitro [3]) |
| --- | --- | --- | --- | --- | --- | --- | --- | --- |
| O=C(CCl)Nc1cccc(Cl)c1 [PCM-0102198] | 0 | 0 | 0.28 | 0.37 | 0 | 9% | 41.1% | 1.8% |
| Cc1cc(Cl)ccc1NC(=O)CCl [PCM-0102214] | 0 | 0.3 | 0.08 | 0.39 | 0 | 44.6% | 67.9% | 5.5% |
| CC(NC(=O)CCl)c1ccc(F)cc1 (stereo not drawn) [PCM-0102228] | 0 | 0 | 0.07 | 0.2 | 0 | 84.6% | 83.2% | 63.8% |
| O=C(CCl)N1CCN(S(=O)(=O)c2cccs2)CC1 [PCM-0102241] | 0 | 0 | 0.12 | 0 | 0 | 8.9% | 49.1% | 8.9% |
| O=C(CCl)N1CCN(C(=O)c2ccco2)CC1 [PCM-0102248] | 0.06 | 0.1 | 0.09 | 0 | 0 | 78.1% | 73.2% | 35.6% |
| O=C(CCl)NC1CCCC1 [PCM-0102250] | 0 | 0 | 0 | 0 | 0 | 71.9% | 69.1% | 58.7% |
| N#Cc1oc2ccccc2c1NC(=O)CCl [PCM-0102252] | 0 | 0.34 | 0.37 | 0.86 | 0 | 3.8% | 34.7% | 3.4% |
| CCOC(=O)N1CCC(NC(=O)CCl)CC1 [PCM-0102255] | 0 | 0.23 | 0 | 0.24 | 0 | 61.8% | 61.3% | 74.2% |
| CNC(=O)c1ccc(NC(=O)CCl)cc1 [PCM-0102267] | 0 | 0 | 0 | 0 | 0 | 20% | 32.5% | 2.2% |
| Cl.O=C(CCl)N1CCN(Cc2cccc(Cl)c2)CC1 [PCM-0102269] | 0 | 0 | 0 | 0.19 | 0 | 6.3% | 24.2% | 7.9% |
| C=CC(=O)Nc1ccc(C(=O)O)cc1 [PCM-0102271] | 0 | 0 | 0 | 0 | 0 | 111% | 94.2% | 95.1% |
| CC(C)N(C(=O)CCl)c1ccccc1 [PCM-0102272] | 0 | 0 | 0.22 | 0 | 0 | 58.6% | 17.7% | 16% |
| O=C(CCl)Nc1cccnc1Cl [PCM-0102274] | 0 | 0 | 0 | 0 | 0 | 84.4% | 88.8% | 81.4% |
| Cl.O=C(CCl)N1CCN(Cc2ccc(Cl)s2)CC1 [PCM-0102277] | 0.11 | 0.26 | 0 | 0.09 | 0 | 8.6% | 37.3% | 18.2% |
| O=C(CCl)N1CCN(S(=O)(=O)c2ccccc2F)CC1 [PCM-0102281] | 0 | 0 | 0.14 | 0 | 0 | 7.1% | 62.6% | 9.5% |
| CC(=O)c1ccccc1NC(=O)CCl [PCM-0102282] | 0 | 0.19 | 0 | 0 | 0 | 102% | 90.3% | 87.2% |
| O=C(CCl)Nc1cccc(C(F)(F)F)c1 [PCM-0102290] | 0 | 0.77 | 0.12 | 0.26 | 0 | 9.5% | 40% | 2.3% |
| O=C(CCl)N1CCN(c2ccccc2Cl)CC1 [PCM-0102297] | 0 | 0.15 | 0.35 | 0 | 0 | 2.3% | 52% | 3.9% |
| CC(C)(C)NC(=O)CN1CCN(C(=O)CCl)CC1.Cl [PCM-0102302] | 0 | 0.24 | 0.08 | 0.13 | 0 | 97% | 98.9% | 84.4% |
| CN(C)C(=O)CN1CCN(C(=O)CCl)CC1.Cl [PCM-0102304] | 0 | 0 | 0 | 0 | 0 | 107% | 114% | 128% |
| CN1C(=O)c2ccc(NC(=O)CCl)cc2C1=O [PCM-0102309] | 0 | 0 | 0.12 | 0.19 | 0 | 52.5% | 61.2% | 67.2% |
| CC(=O)NNC(=O)CCl [PCM-0102310] | 0 | 0 | 0 | 0.18 | 0 | 96.1% | 90.3% | 84.1% |
| O=C(CCl)Nc1cc2ccccc2cc1C(=O)O [PCM-0102311] | 0 | 0.2 | 0.17 | 0.1 | 0 | 105% | 100% | 109% |
| NC(=O)c1ccsc1NC(=O)CCl [PCM-0102314] | 0 | 0.32 | 0.18 | 0 | 0 | 58.5% | 74.4% | 33.7% |
| CC1(C)C2CCC1(C)C(NC(=O)CCl)C2 (stereo not drawn) [PCM-0102315] | 0.12 | 0 | 0 | 0 | 0 | 84.4% | 95% | 75.9% |
| COC(=O)c1c(NC(=O)CCl)sc(C)c1C [PCM-0102322] | 0 | 0.18 | 0.4 | 0 | 0 | 62.5% | 80% | 33.3% |
| COc1ccc2nc(NC(=O)CCl)sc2c1 [PCM-0102330] | 0 | 0.71 | 1 | 0 | 0 | 32.7% | 44.6% | 39.7% |
